From patent publication US8383637B2, “2-amino-quinazoline derivatives useful as inhibitors of β-secretase (BACE)” (Jansssen Pharmaceutica N.V., priority 2004, dated 2013)
Where “and” joins values, the source holds several entries; their conditions need not be identical. Equal values may be shown once. Read-outs that look alike come from different tables or passages of the source.

Columns and labels:
Type in all cases: biochemical
[1] = molecular target: T1, β-secretase(BACE) (Homo sapiens, UniProt P56817); assay: BACE Assay-1 (MCA-substrate, IC50); conditions: procedure of Example 158; read-out: IC50 μM (158)
T1 construct: purchased Panvera
Outline: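 Human BACE (work solution 10 μg/mL) with MCA-peptide substrate (stock 2.0 mg/mL) in 0.05 M citrate buffer, pH 5.0, with PEG8000. Fluorescence read at T0 and T60; compounds tested at multiple concentrations and IC50 calculated from these readings.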

[2] = molecular target: T1, β-secretase(BACE); assay: BACE Assay-2 (FS1 substrate, IC50 and Ki); conditions: procedure of Example 159, FS1 substrate; for Ki: read-out: Ki μM (159)
[3] = molecular target: T1, β-secretase(BACE); assay: BACE FS1% Inhibition Assay; conditions: FS1 substrate; for inhibition at 0.3 µM / % Inhibition (FS) 0.3 μM: 0.3 μM test compound; for inhibition at 0.3 µM: read-out: % Inhibition (FS) 0.3 μM; for inhibition at 1 µM / % Inhibition (FS) 1 μM: 1 μM test compound; for inhibition at 1 µM: read-out: % Inhibition (FS) 1 μM; for inhibition at 3 µM / % Inhibition (FS) 3 μM: 3 μM test compound; for inhibition at 10 µM: 10 μM test compound
Outline: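 Human BACE (4 μg/mL working solution) preincubated 20 min at room temperature with compound, then FS1 substrate (300 μg/mL working solution) added and incubated 1 h at room temperature. Percent inhibition calculated at each compound concentration against blank and vehicle controls.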

[4] = read-out: % Inhibition (FS) 3 μM
[5] = read-out: % Inhibition (FS) 10 μM

T1 sequence (P56817 46-501): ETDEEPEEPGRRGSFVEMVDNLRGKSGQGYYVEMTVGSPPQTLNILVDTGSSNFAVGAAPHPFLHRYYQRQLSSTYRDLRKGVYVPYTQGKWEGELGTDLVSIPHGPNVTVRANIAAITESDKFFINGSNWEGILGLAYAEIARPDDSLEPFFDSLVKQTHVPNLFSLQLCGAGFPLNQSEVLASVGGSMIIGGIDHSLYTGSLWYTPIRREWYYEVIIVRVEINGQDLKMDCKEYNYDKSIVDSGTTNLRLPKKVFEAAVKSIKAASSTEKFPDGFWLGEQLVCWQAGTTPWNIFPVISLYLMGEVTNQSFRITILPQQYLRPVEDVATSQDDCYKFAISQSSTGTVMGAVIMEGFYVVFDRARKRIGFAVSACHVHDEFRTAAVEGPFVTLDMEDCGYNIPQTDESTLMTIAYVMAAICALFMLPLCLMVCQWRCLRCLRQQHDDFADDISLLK

Structure (SMILES) | IC50 [1] | Ki [2] | inhibition at 0.3 µM [3] | inhibition at 1 µM [3] | inhibition at 3 µM [3, 4] | also measured
CCCC(CCC)C(=O)NCCN1Cc2cc(Oc3ccccc3)ccc2N=C1N [Compound 183] | 0.058 µM | 0.19 µM | 48% | 93% | 106% | 
CN(C(=O)c1cccc(CN2Cc3cc(-c4ccccc4CC#N)ccc3N=C2N)c1)C1CCCCC1 [Compound 325] | 0.089 µM | 0.1 µM | < 30% | 86% | 110% | 
CC(C)(C)C(=O)NCCN1Cc2cc(Oc3ccccc3)ccc2N=C1N [Compound 141] | 0.15 µM | 0.08 µM |  |  | 100% | inhibition at 10 µM [3, 5]: 102%
CC1CCCCC1C(=O)NCCN1Cc2cc(Oc3ccccc3)ccc2N=C1N (stereo not shown) [Compound 218] | 0.13 µM | 0.1 µM | 75% | 101% | 114% | 
NC1=Nc2ccc(Oc3ccccc3)cc2CN1CCNC(=O)NC12CC3CC(CC(C3)C1)C2 [Compound 206, 1-Adamantan-1-yl-3-[2-(2-amino-6-phenoxy-4H-quinazolin-3-yl)-ethyl]-urea] | 0.078 µM | 0.27 µM | < 30% | 62% | 106% | 
CC(C)CCC(=O)NC[C@@H](C(C)C)N1Cc2cc(Oc3ccccc3)ccc2N=C1N [Compound 564] | 0.018 µM | 0.011 µM | 112% | 119% | 129% | 
COc1cccc(-c2ccc3c(c2)CN(Cc2cccc(C(=O)N(C)C4CCCCC4)c2)C(N)=N3)c1 [Compound 165] | 0.19 µM | 0.28 µM | < 30% | 72% | 101% | 
CN(C(=O)CCC(c1ccc(Cl)cc1)N1Cc2cc(Oc3ccccc3)ccc2N=C1N)C1CCCCC1 (stereo not shown) [Compound 297] | 0.066 µM | 0.12 µM | < 30% | 76% | 109% | 
CCCC(CCCC(=O)N(C)C1CCCCC1)N1Cc2cc(Oc3ccccc3)ccc2N=C1N (stereo not shown) [Compound 90] | 0.074 µM | 0.22 µM |  |  | 106% | inhibition at 10 µM [3, 5]: 124%
CC(C)OC(=O)NCCN1Cc2cc(Oc3ccccc3)ccc2N=C1N [Compound 220, [2-(2-Amino-6-phenoxy-4H-quinazolin-3-yl)-ethyl]-carbamic acid isopropyl ester] | 0.45 µM | 0.2 µM | 103% | 72% | 102% | 
NC1=Nc2ccc(Oc3ccccc3)cc2CN1[C@@H](CNC(=O)C1CCCCC1)C1CCCCC1 [Compound 485, Cyclohexanecarboxylic acid [2-(2-amino-6-phenoxy-4H-quinazolin-3-yl)-2-(R)-cyclohexyl-ethyl]-amide] | 0.012 µM | 0.017 µM | 100% | 112% | 123% | 
NC1=Nc2ccc(Oc3ccccc3)cc2CN1CCNC(=O)C12CC3CC(CC(C3)C1)C2 [Compound 131] | 0.1 µM | 0.17 µM |  |  | 115% | inhibition at 10 µM [3, 5]: 130%
COc1ccccc1-c1ccc2c(c1)CN(Cc1cccc(C(=O)N(C)C3CCCCC3)c1)C(N)=N2 [Compound 167, 3-[2-Amino-6-(2-methoxy-phenyl)-4H-quinazolin-3-ylmethyl]-N-cyclohexyl-N-methyl-benzamide] | 0.014 µM | 0.03 µM and 0.05 µM | 100% | 112% | 113% | % Inhibition (FS) 0.3 μM ([3]; 0.3 µM): 91%; % Inhibition (FS) 1 μM ([3]; 1 µM): 110%; % Inhibition (FS) 3 μM ([3]; 3 µM): 118%
NC1=Nc2ccc(Oc3ccccc3)cc2CN1CCNC(=O)C1(c2ccc(Cl)cc2)CCCC1 [Compound 196] | 0.015 µM | 0.11 µM | 65% | 96% | 120% | 
NC1=Nc2ccc(Oc3ccccc3)cc2CN1CCNC(=O)NC1CCCCC1 [Compound 215] | 0.23 µM | 0.4 µM | 39% | 71% | 106% | 
CCCCC(CC)C(=O)NCC(C1CCCCC1)N1Cc2cc(Oc3ccccc3)ccc2N=C1N (stereo not shown) [Compound 303] | 0.062 µM | 0.24 µM | < 30% | 70% | 109% | 
NC1=Nc2ccc(Oc3ccccc3)cc2CN1CCNC(=S)NC12CC3CC(CC(C3)C1)C2 [Compound 214, 1-Adamantan-1-yl-3-[2-(2-amino-6-phenoxy-4H-quinazolin-3-yl)-ethyl]-thiourea] | 0.19 µM | 0.1 µM | < 30% | 70% | 101% | 
CN(C(=O)CCCCN1Cc2cc(Oc3cccc(NS(=O)(=O)c4ccccc4)c3)ccc2N=C1N)C1CCCCC1 [Compound 114] | 0.079 µM | 0.27 µM |  |  | 109% | inhibition at 10 µM [3, 5]: 126%
CC(C)(C)OC(=O)NCC(c1ccccc1)N1Cc2cc(Oc3ccccc3)ccc2N=C1N (stereo not shown) [Compound 258] | 0.39 µM | 0.33 µM |  |  |  | % Inhibition (FS) 0.3 μM [3]: <30%; % Inhibition (FS) 1 μM [3]: 46%; % Inhibition (FS) 3 μM [3]: 72%
COc1ccccc1-c1ccc2c(c1)CN(CCNC(=O)C1CCCCC1)C(N)=N2 [Compound 487] | 0.36 µM | 0.26 µM | 38% | 44% | 93% | % Inhibition (FS) 0.3 μM ([3]; 0.3 µM): <30%; % Inhibition (FS) 1 μM ([3]; 1 µM): 32%; % Inhibition (FS) 3 μM ([3]; 3 µM): 95%
CCCCS(=O)(=O)NCCN1Cc2cc(Oc3ccccc3)ccc2N=C1N [Compound 135, Butane-1-sulfonic acid [2-(2-amino-6-phenoxy-4H-quinazolin-3-yl)-ethyl]-amide] | 0.89 µM | 0.29 µM |  |  | 89% | inhibition at 10 µM [3, 5]: 118%
CN(C(=O)c1cccc(CN2Cc3cc(-c4ccccc4)ccc3N=C2N)c1)C1CCCCC1 [Compound 138] | 0.023 µM | 0.06 µM | 98% | 113% | 114% | 
CCCN1Cc2cc(Oc3cccc(NC(=O)CCCC(=O)N(C)C4CCCCC4)c3)ccc2N=C1N [Compound 755] | 0.21 µM | 0.27 µM |  |  |  | IC50 [2]: 1.9 µM; inhibition at 3 µM ([3]; read-out: % Inhibition (FS)): 59%; inhibition at 10 µM ([3]; read-out: % Inhibition (FS)): 79%
COC1CCCC(C(=O)NCCN2Cc3cc(Oc4ccccc4)ccc3N=C2N)C1 (stereo not shown) [Compound 219] | 0.31 µM | 0.17 µM | 51% | 85% | 108% | 
